The text below walks through data of US8183265B2, “2-adamantyl-butyramide derivatives as selective 11β-HSD1 inhibitors” (Merck Patent GmbH, priority 2006, dated 2012).

For the assay, the target named is Human recombinant 11beta-hydroxysteroid dehydrogenase type 1 (11beta-HSD1) (Homo sapiens, UniProt P28845). In words: 11beta-HSD1 enzyme assay (HTRF cortisol). A general note: TR-FRET usually uses a lanthanide donor and a delayed reading to cut background.
Human recombinant 11beta-hydroxysteroid dehydrogenase type 1 (11beta-HSD1), sequence (P28845 whole entry): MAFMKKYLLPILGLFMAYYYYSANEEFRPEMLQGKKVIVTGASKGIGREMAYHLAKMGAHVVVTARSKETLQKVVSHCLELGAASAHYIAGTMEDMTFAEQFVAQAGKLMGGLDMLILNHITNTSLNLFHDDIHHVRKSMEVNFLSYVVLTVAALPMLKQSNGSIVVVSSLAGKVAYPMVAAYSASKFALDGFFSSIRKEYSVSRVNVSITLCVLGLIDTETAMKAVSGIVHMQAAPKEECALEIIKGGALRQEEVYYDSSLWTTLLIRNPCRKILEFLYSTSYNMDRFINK

Method: Mice liver microsome fractions were purchased from TEBU.
The 11beta-HSD1 enzyme assay was carried out in 96 well microtiter plates in a total volume of 100 μl containing 30 mM Hepes buffer, pH 7.4 with 1 mM EDTA, substrate mixture cortisone/NADPH (200 nM/200 μM), G-6-P (1 mM) and inhibitors in serial dilutions. […] Following mixing, the plates were shaken for 150 minutes at 37° C. The reactions were terminated with 10 μl Acid-18beta glycyrrhetinic stop solution. Determinations of cortisol levels in 11 beta-HSD1 preparations were monitored by HTRF (HTRF cortisol assay from Cis bio international).

In the case of `COc1cc(Cl)ccc1OCC(C)(C)CC(=O)NC1C2CC3CC(C2)CC1C3` (stereo not shown), the half-inhibitory concentration (IC50) (commonly the concentration needed to halve the response being measured) turned out to be 45 nM.
